Data: US10294202B2, “Pyrrolidinones as herbicides” (FMC Corporation, priority 2013, dated 2019)

Columns and labels:
barnyardgrass [1] = assay: Test A pre-/postemergence herbicide test; assay type: in vivo, Echinochloa crus-galli
Outline: (§1)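 Planted in loam–sand blend; treated the same day preemergence by directed soil spray, while separately grown plants at one- to two-leaf stage got postemergence spray. Compared visually with untreated controls after approximately 10 days; 100 means complete control.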

kochia = assay: Test A pre-/postemergence herbicide test; assay type: in vivo, Kochia scoparia
Outline: as §1

ragweed = assay: Test A pre-/postemergence herbicide test; assay type: in vivo, Ambrosia elatior
Outline: as §1

ryegrass, Italian = assay: Test A pre-/postemergence herbicide test; assay type: in vivo, Lolium multiflorum
Outline: as §1

giant foxtail = assay: Test A pre-/postemergence herbicide test; assay type: in vivo, Setaria faberii
Outline: as §1

pigweed = assay: Test A pre-/postemergence herbicide test; assay type: in vivo, Amaranthus retroflexus
Outline: as §1

wheat = assay: Test A pre-/postemergence herbicide test; assay type: in vivo, Triticum aestivum; details: Postemergence
Outline: as §1

corn = assay: Test A pre-/postemergence herbicide test; assay type: in vivo, Zea mays; details: Postemergence
Outline: as §1

blackgrass = assay: Test A postemergence herbicide test; assay type: in vivo, Alopecurus myosuroides
Outline: (§2)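 Plants at the one- to two-leaf stage, 2–10 cm tall, grown in loam/sand pots, received postemergence sprays of the test chemicals. After about 10 days in the greenhouse, injury was scored visually against untreated controls on a 0–100 scale (0 none, 100 complete control).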

galium = assay: Test A postemergence herbicide test; assay type: in vivo, Galium aparine
Outline: as §2

rice = assay: Test B flooded paddy test; assay type: in vivo, Oryza sativa; details: 500 g ai/ha, Flood; scale of 0 to 100 where 0 is no effect and 100 is complete control
Outline: (§3)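 2-leaf plants; flood 3 cm over soil; compound into paddy water; depth held. Greenhouse 13–15 d. Visual rating vs controls, 0 (no effect) to 100 (complete control); dash = not tested.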

sedge, umbrella = assay: Test B flooded paddy test; assay type: in vivo, Cyperus difformis; details: 500 g ai/ha, Flood; scale of 0 to 100 where 0 is no effect and 100 is complete control
Outline: as §3

ducksalad = assay: Test B flooded paddy test; assay type: in vivo, Heteranthera limosa; details: 500 g ai/ha, Flood; scale of 0 to 100 where 0 is no effect and 100 is complete control
Outline: as §3

barnyardgrass [2] = assay: Test B flooded paddy test; assay type: in vivo, Echinochloa crus-galli; details: 500 g ai/ha, Flood; scale of 0 to 100 where 0 is no effect and 100 is complete control
Outline: as §3

[3] = Postemergence, 125 g ai/ha, visual rating on 0 to 100 scale (0 no effect, 100 complete control), approx. 10 days
[4] = Postemergence, 500 g ai/ha, 0 to 100 scale (0 no effect, 100 complete control)
[5] = Preemergence, 125 g ai/ha, 0 to 100 scale where 0 is no effect and 100 is complete control
[6] = preemergence, 500 g ai/ha, 0 to 100 scale, 0 is no effect and 100 is complete control
[7] = 125 g ai/ha, visual rating on 0 to 100 scale (0 no effect, 100 complete control), approx. 10 days
[8] = 500 g ai/ha, 0 to 100 scale (0 no effect, 100 complete control)
[9] = Postemergence, 125 g ai/ha, 0 to 100 scale, 0 is no effect, 100 is complete control
[10] = 125 g ai/ha, 0 to 100 scale, 0 is no effect, 100 is complete control

O=C1NCC(c2cnn(CC(F)(F)F)c2)C1C(=O)Nc1cccc(F)c1F (stereo not drawn) [Compound 299]
0: Plant response rating, Kochia (kochia; [3]) | Plant response rating, Kochia (kochia; [4]) | Plant response rating, Kochia (kochia; [5]) | Plant response rating, Kochia (kochia; [6]) | Plant response rating, Ragweed (ragweed; [3]) | Plant response rating, Ragweed (ragweed; [4]) | Plant response rating, Ragweed (ragweed; [5]) | Plant response rating, Ragweed (ragweed; [6]) | Plant response rating, Ryegrass, Italian (ryegrass, Italian; [3]) | Plant response rating, Ryegrass, Italian (ryegrass, Italian; [4]) | Plant response rating, Ryegrass, Italian (ryegrass, Italian; [5]) | Ryegrass, Italian plant response rating (ryegrass, Italian; Preemergence, 500 g ai/ha, visual rating on 0 to 100 scale (0 no effect, 100 complete control)) | Plant response rating, Foxtail, Giant (giant foxtail; [3]) | Plant response rating, Pigweed (pigweed; [3]) | Plant response rating, Pigweed (pigweed; [4]) | Plant response rating, Pigweed (pigweed; [5]) | Plant response rating, Pigweed (pigweed; [6]) | Plant response rating, Wheat (wheat; [7]) | Plant response rating, Wheat (wheat; [8]) | Plant response rating, Corn (corn; [7]) | Plant response rating, Corn (corn; [8]) | Plant response rating, Blackgrass (blackgrass; [7]) | Plant response rating, Blackgrass (blackgrass; [8]) | Plant response rating, Galium (galium; [7]) | Plant response rating, Galium (galium; [8]) | Plant response rating, Rice (rice) | Plant response rating, Sedge, Umbrella (sedge, umbrella)
50: Plant response rating, Foxtail, Giant (giant foxtail; [4]) | Plant response rating, Foxtail, Giant (giant foxtail; [5]) | Plant response rating, Ducksalad (ducksalad)
70: Plant response rating, Barnyardgrass (barnyardgrass [1]; [4]) | Plant response rating, Barnyardgrass (barnyardgrass [1]; [6])
10: Plant response rating, Barnyardgrass (barnyardgrass [1]; [5])
80: Plant response rating, Foxtail, Giant (giant foxtail; [6])
30: Plant response rating, Barnyardgrass (barnyardgrass [1]; [3]) | Plant response rating, Barnyardgrass (barnyardgrass [2])

O=C1NCC(c2cc3ccccc3o2)C1C(=O)Nc1ccccc1F (racemic) [Compound 281]
10: Plant response rating, Foxtail, Giant (giant foxtail; [5])
40: Plant response rating, Barnyardgrass (barnyardgrass [1]; [9])
0: Plant response rating, Kochia (kochia; [9]) | Plant response rating, Kochia (kochia; [4]) | Plant response rating, Kochia (kochia; [5]) | Plant response rating, Kochia (kochia; [6]) | Plant response rating, Ragweed (ragweed; [3]) | Plant response rating, Ragweed (ragweed; [4]) | Plant response rating, Ragweed (ragweed; [5]) | Plant response rating, Ragweed (ragweed; [6]) | Plant response rating, Ryegrass, Italian (ryegrass, Italian; [3]) | Plant response rating, Ryegrass, Italian (ryegrass, Italian; [4]) | Plant response rating, Ryegrass, Italian (ryegrass, Italian; [5]) | Plant response rating, Ryegrass, Italian (ryegrass, Italian; [6]) | Plant response rating, Foxtail, Giant (giant foxtail; [9]) | Plant response rating, Foxtail, Giant (giant foxtail; [4]) | Plant response rating, Pigweed (pigweed; [3]) | Plant response rating, Pigweed (pigweed; [4]) | Plant response rating, Pigweed (pigweed; [5]) | Plant response rating, Pigweed (pigweed; [6]) | Plant response rating, Wheat (wheat; [7]) | Plant response rating, Wheat (wheat; [8]) | Plant response rating, Corn (corn; [10]) | Plant response rating, Corn (corn; [8]) | Plant response rating, Blackgrass (blackgrass; [10]) | Plant response rating, Blackgrass (blackgrass; [8]) | Plant response rating, Galium (galium; [10]) | Plant response rating, Galium (galium; [8]) | Plant response rating, Rice (rice) | Plant response rating, Sedge, Umbrella (sedge, umbrella)
70: Plant response rating, Barnyardgrass (barnyardgrass [1]; [4]) | Plant response rating, Barnyardgrass (barnyardgrass [1]; [6]) | Plant response rating, Foxtail, Giant (giant foxtail; [6])
20: Plant response rating, Barnyardgrass (barnyardgrass [2])
75: Plant response rating, Ducksalad (ducksalad)
50: Plant response rating, Barnyardgrass (barnyardgrass [1]; [5])
